We go through four molecules from patent US20150216860A1, “THERAPEUTIC AGENT FOR SYSTEMIC BONE DISEASE AND USE THEREOF” (NATIONAL UNIVERSITY CORPORATION NAGOYA INIVERSITY, priority 2013, published 2015).

Bounds are passed on as bounds.

The test system of data set [1] is FGFR3 signaling. Particulars: cited from earlier work.
In data set [2] the test system is normal mouse. Nature of the data set: Internal administration to normal mouse from week 2 after birth. It counts as in vivo. Particulars: administered from week 2 after birth, evaluated week 5. As to the method:
(§1) Meclizine was internally administered to a normal pregnant mouse from day 14 of pregnancy (2 mg of meclizine is contained in 5 g of feed), and the body length and extremity length of the neonatal mouse on day 5 after birth were evaluated. On the other hand, meclizine was internally administered to a normal mouse from week 2 after birth, and the mouse was evaluated in the same manner on week 5.

Data set [3] relates to HCS-2/8 cells expressing FGFR3-K650E (TD). Description: Growth assay of HCS-2/8 cells expressing FGFR3-K650E. It counts as cell-based, human. Particulars: for integrated intensities of Venus signals: K650E-expressing HCS-2/8, 72 hours. The text has this: (§2) The pRK7-FGFR3-WT, -K650E, and -K650M vectors expressing wild-type and mutant FGFR3 (Reference 29) were kindly provided by Dr. Pavel Krejci (Medical Genetics Institute, Cedars-Sinai Medical Center, LA). The pRK7-FGFR3-G380R was constructed by the QuikChange site-directed mutagenesis kit (Stratagene). The wild-type and mutant FGFR3 cDNAs were excised from pRK7-FGFR3 vectors by double digestion with HindIII and BamHI. The fragments were cloned into the lentivirus vector, CSII-CMV-MCS-IRES2-Venus using the NheI and BamHI sites. CSII-CMV-MCS-IRES2-Venus was kindly provided by Dr. Hiroyuki Miyoshi (Riken BioResource Center, Tsukuba, Japan.). The HindIII site of the insert and the NheI site of the vector were blunted using Quick Blunting Kit (New England Biolabs) before ligation. HEK293 cells were plated in 150-mm dishes the day before transfection. We introduced the pLP1, pLP2, pLP/VSVG plasmids (ViraPower Packaging Mix, Invitrogen), and the CSII-CMV-MCS-IRES2-Venus vector into HEK293 cells with Lipofectamine 2000 (Invitrogen) according to the manufacturer's protocols. At 48 hours after transfection, we filtered the media containing the virus particles using the Millex-HV 0.45 μm PVDF filters (Millex) and purified lentivirus using two steps of ultracentrifugation (Beckman Coulter). The lentivirus was added to the medium of HCS-2/8 or ATDC5 cells. After 48 hours, we confirmed that more than 90% of cells were positive for Venus signals.
HCS-2/8 (Reference 31) cells were seeded in 96-well tissue culture plates. HCS-2/8 cells were then infected with lentivirus expressing either FGFR3-WT, -K650E, or -K650M. After 48 hours, the numbers of cells were estimated by MTS assay. In addition, ˜1×10^5 HCS-2/8 cells in a 12-well tissue plate were introduced with lentivirus expressing FGFR3-K650E. After 72 hours, the fluorescence intensity of the Venus protein was quantified by the ArrayScan VTI HCS Reader (Thermo Scientific).

The subject of data set [4] is HCS-2/8 cells expressing FGFR3-K650M (SADDAN). Description: Growth assay of HCS-2/8 cells expressing FGFR3-K650M. Type of data set: cell-based, human. Particulars: 20 μM.
Source text: as §2, with “At 48 hours after transfection, we filtered the media containing the virus particles using the Millex-HV 0.45 μm PVDF filters (Millex) and purified lentivirus using two steps of ultracentrifugation (Beckman Coulter). The lentivirus was added to the medium of HCS-2/8 or ATDC5 cells. After 48 hours, we confirmed that more than 90% of cells were positive for Venus signals.” left out
HCS-2/8 (Reference 31) cells were seeded in 96-well tissue culture plates. […] After 72 hours, the fluorescence intensity of the Venus protein was quantified by the ArrayScan VTI HCS Reader (Thermo Scientific).

Data set [5] concerns FGF2-treated RCS cells. Nature of the data set: Alcian blue staining of FGF2-treated RCS cells. It counts as cell-based, rat. The settings on record: 5 ng/ml FGF2, 72 hours; meclizine 10 μM or 20 μM, CNP 0.2 μM. As to the method:
For Alcian blue staining, growing RCS cells in 12-well plates were added with 5 ng/ml FGF2 and also with either 10 μM meclizine or 0.2 μM CNP (Calbiochem). After 72 hours, cells were fixed with methanol for 30 minutes at −20° C., and stained overnight with 0.5% Alcian Blue 8 GX (Sigma) in 1 N HCl. For quantitative analyses, Alcian blue-stained cells were lysed in 200 μl of 6 M guanidine HCl for 6 hours at room temperature (Reference 28). The optical density of the extracted dye was measured at 610 nm using PowerScan 4 (DS Pharma Biomedical).

The subject of data set [6] is normal mouse. Nature of the data set: Internal administration to normal pregnant mouse, neonatal mouse evaluated. The settings on record: in feed to pregnant mouse from day 14 of pregnancy, day 5 after birth. Type of data set: in vivo. As to the method:
as §1

For data set [7], the system named is ATDC5 cells expressing FGFR3-G380R (ACH). Nature of the data set: Micromass culture of ATDC5 cells expressing FGFR3-G380R. It counts as cell-based, mouse. The settings on record: six days, 20 μM meclizine.
The test system of data set [8] is embryonic tibiae. Description: Bone explant culture of embryonic tibiae. Also noted: species or system mouse. The settings on record: for longitudinal length of embryonic tibiae with FGF2: FGF2 100 ng/ml, day 6, meclizine 20 μM, CNP 0.2 μM. The protocol: For bone explant culture, tibiae were dissected under the microscope from wild-type mouse embryos on E16.5, placed in 96-well plates, and cultured in α-minimal essential medium (Invitrogen) supplemented with 0.2% bovine serum albumin, 1 mM β-glycerophosphate, and 50 μg/ml ascorbic acid. Embryonic tibiae were further treated with 100 ng/ml FGF2 in the presence or absence of 20 μM meclizine or 0.2 μM CNP for 6 days, then fixed in 10% formaldehyde in phosphate-buffered saline, demineralized with 0.5 M EDTA, and embedded in paraffin. Sections were stained with hematoxylin-eosin and Alcian blue. Images were taken with the SZ61 microscope (Olympus) equipped with the XZ-1 digital camera (Olympus). The longitudinal length of bone, which was defined as the length between proximal and distal articular cartilage, was measured using ImageJ (NIH).

In data set [9] the test system is ERK1/2 phosphorylation. Nature of the data set: Western blotting of ERK phosphorylation in FGF2-treated RCS cells. Type of data set: cell-based, rat. The settings on record: 20 μM pretreatment 30 min, 5 ng/ml FGF2 5 min. As to the method:
(§3) RCS cells were treated with 20 μM meclizine for 30 min before adding 5 ng/ml FGF2 (“Vehicle” is no treatment group). After 5 min, cells were lysed in the ice-cold RIPA Lysis Buffer (Santa Cruz) supplemented with proteinase inhibitors. Whole cell lysates were separated on SDS-PAGE and transferred to a nitrocellulose membrane. The phosphorylation levels of molecules in the MAPK pathway were determined by Western blotting using the following antibodies: ERK1/2, phospho-ERK1/2(Thr^202/Tyr^204), MEK1/2, and phospho-MEK1/2(Ser^217/221) (Cell Signaling).

For data set [10], the system named is ischemic injury in the brain and heart. The settings on record: cited from earlier work.
Data set [11] concerns MEK1/2 phosphorylation. Nature of the data set: Western blotting of MEK phosphorylation in FGF2-treated RCS cells. Particulars: 20 μM pretreatment 30 min, 5 ng/ml FGF2 5 min. Type of data set: cell-based, rat. As to the method:
as §3

Data set [12] deals with RCS cells expressing caRAF. Description: MTS growth assay of RCS cells expressing constitutively active RAF. It counts as cell-based, rat. As to the method:
(§4) RCS cells, which were kindly provided from Dr. Pavel Krejci (Medical Genetics Institute, Cedars-Sinai Medical Center, LA), were cultured in Dulbecco's Modified Eagle's Medium (DMEM, Invitrogen) supplemented with 10% fetal bovine serum (FBS, Thermo Scientific) (Reference 14). For the RCS growth arrest assays, ˜5×10^3 cells were seeded in 96-well culture plates (Falcon) and incubated for 48 hours in the presence of 10 μM of 1,186 FDA-approved chemical compounds (Prestwick Chemical) and 5 ng/ml of FGF2 (R&D Systems). Cell proliferation was quantified by MTS assay (Cell 96 AQueus One Solution Cell Proliferation Assay, Promega) according to the manufacturer's instructions.
(§5) Clones that express constitutively active mutants in the MAPK/ERK pathway, pcDNA4Myc-ERK2(PD), pcDNA3HA-MEK1(DD), and pcDNA3Flag-C-rafΔN (Reference 30), were kindly provided by Dr. Mutsuhiro Takekawa (Medical Science Institute, Tokyo University, Japan). The inserts were digested with BamHI and XhoI, and were cloned into the CSII-CMV-MCS-IRES2-Venus at the BamHI sites after blunting all digested ends. Lentivirus particles were generated as described above and were applied to RCS cells.

For data set [13], the system named is Mmp10, Mmp13, and Adamts1 mRNA. Nature of the data set: Real-time RT-PCR of matrix proteinases in FGF2-treated RCS cells. Type of data set: cell-based, rat. Particulars: FGF2 four hours; 20 μM meclizine or 0.2 μM CNP. As to the method: Total RNA was isolated from FGF2-treated RCS cells in the presence of 20 μM of meclizine or 0.2 μM of CNP using Trizol. The first strand cDNA was synthesized with ReverTra Ace (Toyobo). We quantified mRNA expression of matrix proteinases (Mmp10, Mmp13, and Adamts1) using LightCycler 480 Real-Time PCR (Roche) and SYBR Green (Takara). The mRNA levels were normalized for that of Gapdh.

Data set [14] relates to RCS cells expressing caERK. Nature of the data set: MTS growth assay of RCS cells expressing constitutively active ERK. It counts as cell-based, rat. As to the method: as §4, §5
Data set [15] deals with FGF2-treated RCS cells. Nature of the data set: RCS growth arrest assay (MTS). It counts as cell-based, rat. Particulars: for cell toxicity in RCS cells: 50 μM. As to the method: as §4
Data set [16] deals with RCS cells expressing caMEK. Nature of the data set: MTS growth assay of RCS cells expressing constitutively active MEK. It counts as cell-based, rat. The protocol: as §4, §5
For data set [17] the following is noted: in vivo; cited from earlier work.
The subject of data set [18] is Fgfr3^Y367C/+ mice. Particulars: subcutaneous administration; cited from earlier work.
Data set [19] has as its system Fgfr3^ach mice. Particulars: continuous intravenous infusion; cited from earlier work.

In the case of `O=C(Nc1cc(C(=O)Nc2ccc(S(=O)(=O)O)cc2S(=O)(=O)O)cc(C(=O)Nc2ccc(S(=O)(=O)O)cc2S(=O)(=O)O)c1)Nc1cc(C(=O)Nc2ccc(S(=O)(=O)O)cc2S(=O)(=O)O)cc(C(=O)Nc2ccc(S(=O)(=O)O)cc2S(=O)(=O)O)c1` [NF449], in data set [1], the “FGFR3 signaling in RCS chondrocytes” value is reported as “inhibits FGFR3 signaling”.

Take `Cc1cccc(CN2CCN(C(c3ccccc3)c3ccc(Cl)cc3)CC2)c1` (stereo not shown) [meclizine, 1-[(4-chlorophenyl)phenylmethyl]-4-[(3-methylphenyl)methyl]piperazine]: in data set [2], the body length entry is “increase” and the tail length result is “increase”. Besides, in data set [3] (20 μM), the “cellular toxicity in K650E-expressing HCS-2/8” value is recorded as “without apparent cellular toxicity”. Moreover, the “growth arrest of K650E-expressing HCS-2/8” value in data set [3] (20 μM, 48 hours, MTS assay) is reported as “partially but significantly rescued the growth arrest”. In addition, in data set [3], the “integrated intensities of Venus signals” value is “significantly increased”. In addition, the “cellular toxicity in K650M-expressing HCS-2/8” value in [4] was “without apparent cellular toxicity”. Further, in data set [4] (48 hours, MTS assay), the “growth arrest of K650M-expressing HCS-2/8” value is recorded as “partially but significantly rescued the growth arrest”. For the same molecule, the “Alcian blue staining and chondrocyte-like cell shape” value in data set [5] is “restored”. Besides, in [6], the “body length of neonatal mouse” value is “increase”; the “length of superior and inferior limbs of neonatal mouse” value is recorded as “increase”. Also, in data set [7], the “levels of glycosaminoglycans (Alcian blue, 610 nm absorbance)” value is given as “significantly increased the levels of glycosaminoglycans”. In data set [8], the “longitudinal length of embryonic tibiae with FGF2” value was “significantly attenuated FGF2-mediated growth inhibition”. The “length of tibia without FGF2 treatment” value in data set [8] (without FGF2, day 6, 20 μM) is listed as “increased the length of tibia”. For the same molecule, the “FGF2-mediated ERK1/2 phosphorylation” value in data set [9] was “attenuated”. Also, the “cytoprotective activity against ischemic injury” value in data set [10] is “cytoprotective activities”. In addition, in data set [11], the MEK1/2 phosphorylation result is listed as “remained unchanged”. Besides, in data set [12], the caRAF-mediated growth inhibition entry is listed as “rescued”. Besides, the “expressions of Mmp10, Mmp13, and Adamts1” value in data set [13] is reported as “significantly suppressed”. Besides, the caERK-mediated growth inhibition entry in data set [14] is given as “had no effect”. Besides, the “RCS proliferation, concentration dependence” value in [15] (0, 1, 2, 5, 10, 20, and 50 μM, 5 ng/ml FGF2, 48 hours, MTS assay) was “dose-dependent increases”. Further, in data set [15] (10 μM compound, 5 ng/ml FGF2, 48 hours, MTS assay), the “increase in RCS proliferation” value was ≥ 1.4 fold. Moreover, the “cell toxicity in RCS cells” value in [15] is reported as “cell toxicity was evident”. Besides, the “cell toxicity in RCS cells” value in data set [15] (listed as Meclizine) is “slight toxicity”. In addition, the caMEK-mediated growth inhibition entry in data set [16] is on record as “rescued”.

As for “BMN111: CNP analog with extended plasma half-life (PGQEHPNARKYKGANKKGLSKGCFGLKLDRIGSMSGLGC; chains of the INN, looked up)”, the plasma half-life result in data set [17] is “extended”. Also, the “bone growth in Fgfr3^Y367C/+ mice” value in data set [18] was “significant recovery of bone growth”.

As to “CNP: C-type natriuretic peptide, potent antagonist of FGFR3 signaling, used as positive control”, the “integrated intensities of Venus signals” value in data set [3] is listed as “increased the integrated Venus signal intensities”. For the same molecule, the half-life result in [17] is reported as “very short”. In addition, the “Alcian blue staining and chondrocyte-like cell shape” value in data set [5] is “approximated that of FGF2-negative cells”. Besides, the “levels of glycosaminoglycans (Alcian blue, 610 nm absorbance)” value in [7] is “increased the Alcian blue staining”. In addition, in [8], the “longitudinal length of embryonic tibiae with FGF2” value is listed as “significantly attenuated FGF2-mediated growth inhibition”. For the same molecule, in data set [19], the “dwarfism of Fgfr3^ach mice” value is “successfully normalized the dwarfism”. In data set [13], the “expressions of Mmp10, Mmp13, and Adamts1” value is recorded as “significantly suppressed”.
